Measurements from patent US12570642B2, “GLP-IR modulating compounds” (Gilead Sciences, Inc., priority 2021, dated 2026).
Where two headings read alike, the source gives them in different places.

How the values were obtained:
[1] = Pharmacokinetic (PK) studies, in vivo monkey oral PK; design: species or system Cynomolgus monkeys; details: Cynomolgus monkey; for Tmax / AUC(0-t) / Cmax / bioavailability: plasma; for AUC(0-t): read-out: AUC0-24 (Arbitrary units); for Cmax: read-out: Cmax (Arbitrary unit); for bioavailability: read-out: F % (oral bioavailability)
Experimental: Pharmacokinetic (PK) Studies Test Articles:
Examples 60, 115, 117, and 119 were tested along with comparative examples CE-1 and CE-2.
Dose Formulation Preparation
Compounds CE-2, Example 60, Example 115, Example 117, and Example 119 were combined with a mixture of 10% NMP (v:v) and 90% PEG300 (v:v), and the mixture was stirred until a homogeneous solution was obtained.
Compound CE-1 was combined with a mixture of 15% 2-hydroxypropyl-β-cyclodextrin (w:v) and 85% Milli-Q water (v:v), and the mixture was stirred until a homogeneous solution was obtained.
Young adult non-naive Cynomolgus monkeys with weight about 2.5-5 kg (n=1-3/test article/route) were fasted overnight and then dosed with either CE-1, CE2, Example 60, Example 115, Example 117 or Example 119. Food was supplied approximately 4 hours post dose and animals were provided with free access to water all the time. Animals were restrained at designated time points for blood sampling. Approximately 500 μL of blood samples was taken via cephalic or saphenous vein into EDTA-K2 tubes. For oral administration (PO): blood samples were generally collected pre-dose, and at 15 min, 30 min, 1 hr., 2 hr., 4 hr., 8 hr., 12 hr., and 24 hr. time points after dosing. Blood was be maintained on wet ice, in chilled cryoracks, or at approximately 5° C. prior to centrifugation to obtain plasma. Centrifugation was conducted within 1 hour of collection. Plasma (approximately 200 μL) was placed into a micronic tubes containing 4 μL of formic acid (the final concentration of formic acid in plasma was approximately 2%) and samples were vortex mixed. Samples were maintained on dry ice prior to storage at approximately −70° C.
LC-MS/MS assays were utilized to quantify the concentration of the test articles in plasma as follows.
50 μL plasma sample was mixed with 350 μL of ACN combined with an internal standard. The mixture was then vortexed for about 1-5 min, and centrifuged at about 4,000-5,800 rpm for about […]. An aliquot of 1 μL supernatant was used for LC-MS/MS analysis.
MS conditions: A Sciex API 6500 equipped with electrospray ionization in the positive ion selected reaction monitoring mode was used for detection.
HPLC conditions • Mobile Phase A: H2O-0.11% Formic Acid • Mobile Phase B: ACN-0.1% Formic Acid
• Column: Phenomenex Kinetex XBCl8 (2.1×50 mm, 2.6 μm) with a flow rate of 1.20 mL/min • Column temperature: 60° C. • Retention time: approximately between 0.85 to 1.05 • min Pharmacokinetics (PK) Parameters
Pharmacokinetics parameters, including area under the curve (AUC0-24), maximum plasma concentration (Cmax), time to reach maximum plasma concentration (Tmax), oral bioavailability (F %), etc., were calculated using Dotmatics software in non-compartmental model.

GLP-1R = GLP-1R (Homo sapiens, UniProt P43220); assay: GLP-1R Activation - cAMP Assay; format: cell-based; details: cAMP increase in CHO cells stably expressing GLP-1R; each compound run on one of the two cAMP assays (Assay 1 or Assay 2, not specified)
Sequence of GLP-1R (P43220 24-463): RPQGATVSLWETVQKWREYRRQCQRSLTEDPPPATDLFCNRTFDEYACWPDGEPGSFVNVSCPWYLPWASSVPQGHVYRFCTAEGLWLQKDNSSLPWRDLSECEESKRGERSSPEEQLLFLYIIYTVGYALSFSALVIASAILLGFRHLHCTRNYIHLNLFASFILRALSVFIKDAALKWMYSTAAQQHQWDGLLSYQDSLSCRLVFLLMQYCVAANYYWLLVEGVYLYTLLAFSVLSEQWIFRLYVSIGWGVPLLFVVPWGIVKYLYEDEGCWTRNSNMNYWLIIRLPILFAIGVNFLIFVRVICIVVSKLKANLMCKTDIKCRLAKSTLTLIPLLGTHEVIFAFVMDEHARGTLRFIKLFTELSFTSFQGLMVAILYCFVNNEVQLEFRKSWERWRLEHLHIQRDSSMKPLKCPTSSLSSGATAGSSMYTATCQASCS
Outline: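 cAMP rise read by HTRF after 30 min agonist exposure (10-point titration, 37 °C) in HBSS/20 mM Hepes/0.1% BSA, following 1 h pre-incubation. Cells: stable GLP-1R CHO line, 1,000/well, seeded overnight. Sigmoidal fit of response vs log concentration gives EC50.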

SMILES | plasma concentrations ([1]; over a period of 12 h after a single oral dose of 1 mg/kg) [nM] | Tmax ([1]; single oral dose 1 mg/kg) [h] | AUC(0-t) ([1]; single oral dose 1 mg/kg) [µM·h] | Cmax ([1]; single oral dose 1 mg/kg) [nM] | plasma exposure after the 12 h period ([1]; single oral dose of 1 mg/kg, after 12 h) | bioavailability ([1]; single oral dose 1 mg/kg) [%] | duration of exposure ([1]; single oral dose 2 mg/kg) | Tmax ([1]; single oral dose 2 mg/kg) [h] | AUC(0-t) ([1]; single oral dose 2 mg/kg) [µM·h] | Cmax ([1]; single oral dose 2 mg/kg) [nM] | bioavailability ([1]; single oral dose 2 mg/kg) [%] | EC50 (GLP-1R) [nM]
CC1(C)COC[C@H]1n1c(Cc2cc(F)c(-c3cccc(OCc4ccc(C#N)cc4F)n3)cc2F)nc2ccc(C(=O)O)cc21 [Example 60] |  |  |  |  |  |  |  | 1.5 ± 0.9 | 5.57 ± 2.19 | 385 ± 82 | 47.6 ± 12.3 | 0.04
CC1(C)COC[C@H]1n1c(Cc2cc(F)c(-c3cccc(OCc4ccc(Cl)cc4F)n3)cc2F)nc2ccc(C(=O)O)cc21 [Example 115] |  |  |  |  |  |  |  | 2.7 ± 1.2 | 17.9 ± 2.04 | 1540 ± 166 | 42 ± 16.5 | 0.122
CC1(C)COC[C@H]1n1c(Cc2cc(F)c(-c3ccnc(OCc4ccc(Cl)cc4F)n3)cc2F)nc2c(F)cc(C(=O)O)cc21 [Example 117, (S)-2-(4-(2-((4-chloro-2-fluorobenzyl)oxy)pyrimidin-4-yl)-2,5-difluorobenzyl)-1-(4,4-dimethyltetrahydrofuran-3-yl)-4-fluoro-1H-benzo[d]imidazole-6-carboxylic Acid] |  |  |  |  |  |  |  | 4.7 ± 2.3 | 12.8 ± 4.01 | 1600 ± 832 | 52.2 ± 16.3 | 0.044
CC1(C)COC[C@H]1n1c(Cc2cc(F)c(-c3cccc(OCc4ccc(C#N)cc4)n3)cc2F)nc2ccc(C(=O)O)cc21 [Example 119, (S)-2-(4-(6-((4-cyanobenzyl)oxy)pyridin-2-yl)-2,5-difluorobenzyl)-1-(4,4-dimethyltetrahydrofuran-3-yl)-benzimidazole-6-carboxylic Acid] |  |  |  |  |  |  |  | 1.7 ± 0.6 | 19.4 ± 3.31 | 1190 ± 137 | 47.6 ± 8.1 | 0.031

Other lines, results leading:

plasma concentrations ([1]; over a period of 12 h after a single oral dose of 1 mg/kg) [nM] | Tmax ([1]; single oral dose 1 mg/kg) [h] | AUC(0-t) ([1]; single oral dose 1 mg/kg) [µM·h] | Cmax ([1]; single oral dose 1 mg/kg) [nM] | plasma exposure after the 12 h period ([1]; single oral dose of 1 mg/kg, after 12 h) | bioavailability ([1]; single oral dose 1 mg/kg) [%] | duration of exposure ([1]; single oral dose 2 mg/kg) | Tmax ([1]; single oral dose 2 mg/kg) [h] | AUC(0-t) ([1]; single oral dose 2 mg/kg) [µM·h] | Cmax ([1]; single oral dose 2 mg/kg) [nM] | bioavailability ([1]; single oral dose 2 mg/kg) [%] | EC50 (GLP-1R) [nM] | SMILES
< 10 | 2.2 ± 1.8 | 0.0477 ± 0.0133 | 4.5 ± 0.8 | below the detection limit | 2.5 |  |  |  |  |  |  | N#Cc1ccc(COc2cccc(C3CCN(Cc4nc5ccc(C(=O)O)cc5n4C[C@@H]4CCO4)CC3)n2)c(F)c1 [CE-1, (S)-2-((4-(6-((4-cyano-2-fluorobenzyl)oxy)pyridin-2-yl)piperidin-1-yl)methyl)-1-(oxetan-2-ylmethyl)-1H-benzo[d]imidazole-6-carboxylic acid, reference compound]
 |  |  |  |  |  | sustained exposures over 24 h | 4 ± 2 | 2.81 ± 1.33 | 224 ± 130 | 27.4 |  | N#Cc1ccc(COc2cccc(-c3cc(F)c(Cc4nc5ccc(C(=O)O)cc5n4C[C@@H]4CCO4)cc3F)n2)c(F)c1 [CE-2, (S)-2-(4-(6-((4-cyano-2-fluorobenzyl)oxy)pyridin-2-yl)-2,5-difluorobenzyl)-1-(oxetan-2-ylmethyl)-1H-benzo[d]imidazole-6-carboxylic acid, reference compound]
